Laboratory results published in patent US20130296224A1, “METHOD FOR TREATMENT OF INFLAMMATORY DISEASE AND DISORDER” (HealOr Ltd., priority 2011, published 2013).
The star is where a group is joined. Palmitoyl = CCCCCCCCCCCCCCCC(=O)*; Myristoyl = CCCCCCCCCCCCCC(=O)*

Assays:
EAE mice = experiment: Experimental allergic encephalomyelitis (EAE), MOG35-55/CFA immunized mice; type: in vivo, C57BL/6J mice; parameters: EAE severity / average group score at the end of the experiment (day 42): dose or concentration left out as unconfirmed; details: for Score on day 18 / Score on day 29 / Score on day 37: EAE scale 0-6; for Number of dead mice during 49 days: n=7 per group; for EAE score on the initial day (in brackets): scale 0-6
[1] = system: splenocytes stimulated with LPS; experiment: Cytokine secretion in splenocytes stimulated with LPS, treated with PKCδ activator; type: cell-based
Protocol: (§1) PKCδ activators were also shown to have an anti-inflammatory effect on keratinocytes and splenocytes. Keratinocytes were derived from newborn BALB/C mice skin. The cells were incubated for 5 days in 24 wells plate. Cells were then incubated with PBS−/− as control or stimulated by LPS or TNFα. The PKCδ inhibitor DAP-1 (SEQ ID NO: 34) was added. Medium containing secreted cytokines was collected after 48 hr and analyzed using ELISA. FIG. 43 is a tabular summary showing cytokine secretion in splenocytes stimulated with LPS. FIG. 44 is a tabular summary of cytokine secretion in keratinocytes stimulated by TNFα.

[2] = system: keratinocytes stimulated by TNFα; experiment: Cytokine secretion in stimulated keratinocytes treated with PKCδ activator (ELISA); type: cell-based, BALB/C mice; details: medium collected after 48 hr
Protocol: as §1

activated keratinocytes = experiment: Cytokine secretion in LPS, TNFα or IL-17 activated keratinocytes treated with peptide PKCα inhibitors (ELISA); type: cell-based, BALB/C mice; details: for cytokine secretion in keratinocytes stimulated by LPS, TNFα, or IL-17: medium collected after 48 hr, ELISA; for cytokine secretion from LPS and TNFα activated keratinocytes: FIGS. 19 to 23; for cytokine secretion from IL-17A activated keratinocytes: FIGS. 24 to 27
Protocol: To determine their effects, keratinocytes were derived from newborn BALB/C mice skin. The cells were incubated for 5 days in 24 wells plate. Cells were then incubated with PBS −/− as control or stimulated by LPS, TNFα, or IL-17. PKCα inhibitors were added as indicated. Medium containing secreted cytokines was collected after 48 hr and analyzed using ELISA. FIG. 50 is a tabular summary of cytokine secretion.

[3] = system: histamine induced pruritus; experiment: Histamine prick test model of pruritus; type: in vivo, healthy volunteers; details: topical application on forearm, photographs at 0, 10, 20, 30 minutes
Protocol: Forearms of individual subjects were injected with histamine solution and placebo. The formulation of Example 4 was topically applied with MPDY-1 at various concentrations and pruritus was assessed over a time course as shown in FIGS. 39-42.
This test was performed by placing a drop of a solution containing a possible allergen on the skin, and a series of scratches or needle pricks allow the solution to enter the skin. The extract enters into the outer layer of the skin (epidermis) using a fine needle (such as a. 26G disposable needle). This testing is not painful, and generally there is no bleeding involved since the needle only scratches the surface of the skin. If the skin develops a red, raised itchy area (called a wheal), it is as a result of allergic reaction to that allergen. This is called a positive reaction. A drop of extract is introduced through a fine needle (such as a No. 26 disposable needle). The test causes no discomfort and minimal trauma so that controls and negative test show only the site of the prick; if anything.
26G needles were utilized to introduce histamine stock (Histatrol Positive Control Histamine, 1 mg/ml, code #HIST14999V, Trupharm). The test was conducted on healthy volunteers in a double-blind, randomized test. The formulations were applied on the forearms. […]

macrophages (Iba-1) = experiment: Macrophage infiltration in skin wound (Iba-1 staining); type: in vivo, C57BL/6J mouse; details: daily treatment, five days post-wounding
Protocol: The effect of MPDY-1 on macrophage infiltration was also shown by Iba-1 staining. Iba-1 is a general marker for macrophages. […] As above, a two-cm longitudinal incision was done on the upper back of a C57BL/6J mouse. Following wounding, a sterile pad was sutured to the mouse's skin. Animals were treated daily with MPDY-1 (n=6). Five days post-wounding, when inflammatory phase reaches its peak, the mice were sacrificed, skin tissues were embedded in paraffin and immunohistochemical staining was performed utilizing anti-Iba-1 antibodies.

IKK = experiment: TNFα induced IKK activation in keratinocytes (Western blot phospho-IKKa/b Ser176/180); type: cell-based, Murine; details: 1 hour pretreatment, TNFα 35 ng/ml 15 minutes
Protocol: Murine primary keratinocytes were grown for 4 days to full confluence in Low Ca^+2 MEM. Cells were pretreated with designated concentration of MPDY-1 as described in the figure for 1 hour, prior to TNFα induction. Following MPDY-1 pretreatment, cells were incubated with TNFα 35 ng/ml for 15 minutes. Reaction was stopped by adding ice-cold dPBS−/− and keratinocytes were homogenized in RIPA buffer. Samples were subjected to SDS PAGE Western Blot analysis, utilizing phospho-IKKa/b (Ser176/180 antibody).

[4] = system: activated macrophages (MAC-2); experiment: Macrophage activation in skin wound (MAC-2 staining); type: in vivo, C57BL/6J mouse; details: daily treatment, 5 days; control vs 10 μg p=0.0028
Protocol: The effect of MPDY-1 on macrophage activation was also shown by MAC-2 staining. MAC-2 is a specific marker for activated macrophages. […] A two-cm longitudinal incision was done as described above. Animals were treated daily with DPBS^−/− (Control) or MPDY-1 in the specified concentrations (n=6). After 5 days immunohistochemical staining was performed utilizing anti-MAC-2 antibodies. Bar […]. (*p(control Vs. MPDY-1 10 μg)=0.0028).

[5] = 0.1 mg/kg i.p. three times a week
[6] = 1 mg/kg i.p. three times a week

CRAMP: comparison treatment in the EAE study (0.2 and 2 mg/kg); not further described (ISRLAGLLRKGGEKIGEKLKKIGQKIKNFFQKLVPQPE; Cathelin-related antimicrobial peptide; UniProt P51437 135-172, looked up) [reference compound]
The initial day (first illness signs) (EAE mice; 0.2 mg/kg i.p. three times a week): 10 days
Score on day 18 (EAE mice; 0.2 mg/kg i.p.): 3.214
Score on day 29 (EAE mice; 0.2 mg/kg i.p.): 2.000
Score on day 37 (EAE mice; 0.2 mg/kg i.p.): 2.571
Number of dead mice during 49 days (EAE mice; 0.2 mg/kg i.p.): 2
EAE score on the initial day (in brackets) (EAE mice; 0.2 mg/kg i.p.): 0.571
The initial day (first illness signs) (EAE mice; 2 mg/kg i.p. three times a week): 11 days
Score on day 18 (EAE mice; 2 mg/kg i.p.): 2.643
Score on day 29 (EAE mice; 2 mg/kg i.p.): 2.643
Score on day 37 (EAE mice; 2 mg/kg i.p.): 2.143
Number of dead mice during 49 days (EAE mice; 2 mg/kg i.p.): 2
EAE score on the initial day (in brackets) (EAE mice; 2 mg/kg i.p.): 0.143

H-His-Phe-Glu-Asp-Trp-Ile-Asp-His-Phe-Glu-Asp-Trp-Ile-Asp-OH (H-HFEDWIDHFEDWID-OH) [DAP-1]
inflammatory cytokine secretion in splenocytes [1]: significantly decease inflammatory cytokine secretion
inflammatory cytokine secretion in keratinocytes [2]: significantly decease inflammatory cytokine secretion

H-Phe-Ala-Arg-Lys-Gly-Ala-Leu-Arg-Gln-OH (H-FARKGALRQ-OH) [AWOT-1]
cytokine secretion in keratinocytes stimulated by LPS, TNFα, or IL-17 (activated keratinocytes): effective in decreasing cytokine secretion

H-Phe-Ala-Arg-Lys-Gly-Ala-Leu-Arg-Gln-OH-acetate salt (H-FARKGALRQ-OH; also: acetate salt) [PDY-1]
cytokine secretion from LPS and TNFα activated keratinocytes (activated keratinocytes): decrease cytokine secretion
cytokine secretion from IL-17A activated keratinocytes (activated keratinocytes): decrease cytokine secretion

H-Thr-Leu-Asn-Pro-Gln-Trp-Glu-Ser-OH (H-TLNPQWES-OH) [AIP-1]
cytokine secretion in keratinocytes stimulated by LPS, TNFα, or IL-17 (activated keratinocytes): effective in decreasing cytokine secretion

Myristoyl-Phe-Ala-Arg-Lys-Gly-Ala-Leu-Arg-Gln-OH (Myristoyl-FARKGALRQ-OH; SMILES CCCCCCCCCCCCCC(=O)N[C@@H](Cc1ccccc1)C(=O)N[C@@H](C)C(=O)N[C@@H](CCCNC(=N)N)C(=O)N[C@@H](CCCCN)C(=O)NCC(=O)N[C@@H](C)C(=O)N[C@@H](CC(C)C)C(=O)N[C@@H](CCCNC(=N)N)C(=O)N[C@@H](CCC(N)=O)C(=O)O) [MPDY-1]
redness, inflammation and pruritus compared with control over the time course [3]: significantly attenuated redness, inflammation and pruritus
macrophage infiltration (Iba-1 positive cells per field) (macrophages (Iba-1)): dose dependent effect
EAE severity (EAE mice): reduced EAE severity
EAE score / clinical symptoms compared to the control group (EAE mice; 0.1 mg/kg): lower score during most of the experiment days
The initial day (first illness signs) (EAE mice; [5]): 13 days
EAE score on the initial day (in brackets) (EAE mice; [5]): 1.000
Score on day 29 (EAE mice; 0.1 mg/kg i.p.): 2.000
Score on day 37 (EAE mice; 0.1 mg/kg i.p.): 1.500
The initial day (first illness signs) (EAE mice; [6]): 11 days
Number of dead mice during 49 days (EAE mice; 1 mg/kg i.p.): 2
EAE score on the initial day (in brackets) (EAE mice; 1 mg/kg i.p.): 0.214
TNFα induced IKK activation in keratinocytes (IKK): significantly reduced
concentration exhibiting the strongest inhibition of IKK activation (lowest tested) (IKK): 0.1 mg/mL
activation of macrophages (MAC-2 positive cells per field) [4]: significantly inhibited
cytokine secretion from LPS and TNFα activated keratinocytes (activated keratinocytes): decrease cytokine secretion
cytokine secretion from IL-17A activated keratinocytes (activated keratinocytes): decrease cytokine secretion
cytokine secretion in keratinocytes stimulated by LPS, TNFα, or IL-17 (activated keratinocytes): effective in decreasing cytokine secretion

Myristoyl-Phe-Ala-Arg-Lys-Gly-Ala-Leu-OH (Myristoyl-FARKGAL-OH; SMILES CCCCCCCCCCCCCC(=O)N[C@@H](Cc1ccccc1)C(=O)N[C@@H](C)C(=O)N[C@@H](CCCNC(=N)N)C(=O)N[C@@H](CCCCN)C(=O)NCC(=O)N[C@@H](C)C(=O)N[C@@H](CC(C)C)C(=O)O) [MPDY-1 sh]
cytokine secretion from LPS and TNFα activated keratinocytes (activated keratinocytes): decrease cytokine secretion
cytokine secretion from IL-17A activated keratinocytes (activated keratinocytes): decrease cytokine secretion

Myristoyl-Phe-Ala-Arg-Lys-Gly-Ala-Leu-OH-trifluoracetate salt (Myristoyl-FARKGAL-OH; also: trifluoracetate salt) [AIP-2]
cytokine secretion in keratinocytes stimulated by LPS, TNFα, or IL-17 (activated keratinocytes): effective in decreasing cytokine secretion

Myristoyl-Thru-Arg-Lys-Arg-Gln-Arg-Ala-Met-Arg-Arg-Arg-Val-His-Gln-Ile-Asn-Gly-OH (Myristoyl-TRKRQRAMRRRVHQING-OH; SMILES CCCCCCCCCCCCCC(=O)N[C@H](C(=O)N[C@@H](CCCNC(=N)N)C(=O)N[C@@H](CCCCN)C(=O)N[C@@H](CCCNC(=N)N)C(=O)N[C@@H](CCC(N)=O)C(=O)N[C@@H](CCCNC(=N)N)C(=O)N[C@@H](C)C(=O)N[C@@H](CCSC)C(=O)N[C@@H](CCCNC(=N)N)C(=O)N[C@@H](CCCNC(=N)N)C(=O)N[C@@H](CCCNC(=N)N)C(=O)N[C@H](C(=O)N[C@@H](Cc1c[nH]cn1)C(=O)N[C@@H](CCC(N)=O)C(=O)N[C@H](C(=O)N[C@@H](CC(N)=O)C(=O)NCC(=O)O)[C@@H](C)CC)C(C)C)[C@@H](C)O) [MPE-1]
EAE severity (EAE mice): reduced EAE severity
The initial day (first illness signs) (EAE mice; [5]): 11 days
EAE score on the initial day (in brackets) (EAE mice; [5]): 0.429
The initial day (first illness signs) (EAE mice; [6]): 10 days
Number of dead mice during 49 days (EAE mice; 1 mg/kg i.p.): 4
EAE score on the initial day (in brackets) (EAE mice; 1 mg/kg i.p.): 0.429
average group score at the end of the experiment (day 42) (EAE mice; control group 2.86): 2.00

Palmitoyl-Phe-Ala-Arg-Lys-Gly-Ala-Leu-Arg-Gln-OH-acetate salt (Palmitoyl-FARKGALRQ-OH; also: acetate salt) [PPDY-1]
cytokine secretion in keratinocytes stimulated by LPS, TNFα, or IL-17 (activated keratinocytes): effective in decreasing cytokine secretion
